≈ marks a conversion by molar mass, not a printed value.
Legend:
[1] = tested on: Haemophilus influenzae; test: Antimicrobial activity against beta-lactamase negative ampicillin-susceptible-Haemophilus influenzae harboring gyrA Asp88Gly, gyrB Thr472Ile and parC Asp83Asn mutant gene by broth microdilution method
[2] = tested on: Haemophilus influenzae; test: Antimicrobial activity against beta-lactamase positive ampicillin-resistant-Haemophilus influenzae gyrA Ser84Leu, parC Ser84Arg/Asn138Ser and parE Asp364Gly mutant gene by broth microdilution method
[3] = tested on: Haemophilus influenzae; test: Antimicrobial activity against beta-lactamase positive ampicillin-resistant-Haemophilus influenzae gyrA Asp88Asn, parC Ser84Cys and parE Ala369Thr mutant gene by broth microdilution method
[4] = tested on: Haemophilus influenzae; test: Antimicrobial activity against beta-lactamase negative ampicillin-resistant-Haemophilus influenzae harboring fst1 mutant gene and gyrA Ser84Leu, parC Ser133Ala/Asn138Ser mutant gene by broth microdilution method
[5] = tested on: Haemophilus influenzae; test: Antimicrobial activity against beta-lactamase negative ampicillin-resistant-Haemophilus influenzae harboring fst1 mutant gene and gyrA Ser84Leu mutant gene by broth microdilution method
[6] = tested on: Haemophilus influenzae; test: Antimicrobial activity against beta-lactamase negative ampicillin-resistant-Haemophilus influenzae harboring fst1 mutant gene and gyrA Ser84Leu, parC Asn138Ser and parE Ser474Asn mutant gene by broth microdilution method
[7] = tested on: Haemophilus influenzae; test: Antimicrobial activity against beta-lactamase negative ampicillin-resistant-Haemophilus influenzae harboring fst1 mutant gene and gyrA Asp88Thr and parC Glu88Lys mutant gene by broth microdilution method
[8] = tested on: Haemophilus influenzae; test: Antimicrobial activity against beta-lactamase positive (amoxicillin)-clavulanate-resistant Haemophilus influenzae harboring fst1 mutant gene and gyrA Ser84Leu/Asp88Gly, parC Glu88Lys and parE VAl392Ile/Asp420Asn mutant gene by broth microdilution method
[9] = tested on: Haemophilus influenzae; test: Antimicrobial activity against beta-lactamase positive (amoxicillin)-clavulanate-resistant Haemophilus influenzae harboring fst1 mutant gene and gyrA Ser84Leu, parC Ser84Ile/Asn138Ser mutant gene by broth microdilution method
[10] = tested on: Haemophilus influenzae; test: Antimicrobial activity against beta-lactamase positive (amoxicillin)-clavulanate-resistant -Haemophilus influenzae harboring fst1 mutant gene and gyrA Ser84Leu, parC Ser84Cys and parE Asp364Thr mutant gene by broth microdilution method
[11] = tested on: Haemophilus influenzae; test: Antimicrobial activity against beta-lactamase positive (amoxicillin)-clavulanate-resistant Haemophilus influenzae harboring fst1 mutant gene and gyrA Ser84Leu, parC Ser84Cys and parE Ala369Thr mutant gene by broth microdilution method
[12] = tested on: Haemophilus influenzae; test: Antimicrobial activity against beta-lactamase positive (amoxicillin)-clavulanate-resistant Haemophilus influenzae harboring fst1 mutant gene and gyrA Ser84Leu and parE Ala369Thr mutant gene by broth microdilution method
[13] = tested on: Haemophilus influenzae; test: Antimicrobial activity against beta-lactamase positive (amoxicillin)-clavulanate-resistant Haemophilus influenzae harboring fst1 mutant gene and gyrA Asp88Thr mutant gene by broth microdilution method
[14] = tested on: Haemophilus influenzae; test: Antimicrobial activity against beta-lactamase negative ampicillin-resistant -Haemophilus influenzae by broth microdilution method; assay type: functional
[15] = tested on: Haemophilus influenzae; test: Antimicrobial activity against beta-lactamase negative ampicillin-resistant Haemophilus influenzae assessed as susceptible isolates by broth microdilution method; assay type: functional
[16] = tested on: Haemophilus influenzae; test: Antimicrobial activity against beta-lactamase positive (amoxicillin)clavulanate-resistant Haemophilus influenzae by broth microdilution method; assay type: functional
[17] = tested on: Haemophilus influenzae; test: Antimicrobial activity against beta-lactamase positive (amoxicillin)clavulanate-resistant Haemophilus influenzae assessed as susceptible isolates by broth microdilution method; assay type: functional
[18] = tested on: Haemophilus influenzae; test: Antimicrobial activity against beta-lactamase negative ampicillin-resistant Haemophilus influenzae by broth microdilution method in presence of beta-lactamase inhibitor Tazobactam; assay type: functional
[19] = tested on: Haemophilus influenzae; test: Antimicrobial activity against beta-lactamase negative ampicillin-resistant Haemophilus influenzae assessed as susceptible isolates by broth microdilution method in presence of beta-lactamase inhibitor Tazobactam; assay type: functional
[20] = tested on: Haemophilus influenzae; test: Antimicrobial activity against beta-lactamase positive (amoxicillin)clavulanate-resistant Haemophilus influenzae by broth microdilution method in presence of beta-lactamase inhibitor Tazobactam; assay type: functional
[21] = tested on: Haemophilus influenzae; test: Antimicrobial activity against beta-lactamase positive (amoxicillin)clavulanate-resistant Haemophilus influenzae assessed as susceptible isolates by broth microdilution method in presence of beta-lactamase inhibitor Tazobactam; assay type: functional
[22] = tested on: Haemophilus influenzae; test: Antimicrobial activity against beta-lactamase negative ampicillin-susceptible Haemophilus influenzae harboring […] mutant gene by broth microdilution method in presence of beta-lactamase inhibitor Tazobactam; assay type: functional
[23] = tested on: Haemophilus influenzae; test: Antimicrobial activity against beta-lactamase negative ampicillin-susceptible Haemophilus influenzae harboring […] mutant gene assessed as susceptible isolates by broth microdilution method in presence of beta-lactamase inhibitor Tazobactam; assay type: functional
[24] = tested on: Haemophilus influenzae; test: Antimicrobial activity against beta-lactamase-positive ampicillin-resistant Haemophilus influenzae harboring […] mutant gene by broth microdilution method in presence of beta-lactamase inhibitor Tazobactam; assay type: functional
[25] = tested on: Haemophilus influenzae; test: Antimicrobial activity against beta-lactamase-positive ampicillin-resistant Haemophilus influenzae harboring fst1 mutant gene assessed as susceptible isolates by broth microdilution method in presence of beta-lactamase inhibitor Tazobactam; assay type: functional
[26] = tested on: Haemophilus influenzae; test: Antimicrobial activity against beta-lactamase negative ampicillin-resistant-Haemophilus influenzae harboring […] mutant gene by disk diffusion method in presence of beta-lactamase inhibitor Tazobactam; assay type: functional
[27] = tested on: Haemophilus influenzae; test: Antimicrobial activity against beta-lactamase negative […]-Haemophilus influenzae harboring […] mutant gene by disk diffusion method in presence of beta-lactamase inhibitor Tazobactam; assay type: functional

Compound: O=C(O)c1cn(C2CC2)c2cc(N3CCNCC3)c(F)cc2c1=O [CIPROFLOXACIN]
- MIC [1]: 0.25 µg/mL (≈ 0.754 µM)
- MIC [2]: 0.25 µg/mL (≈ 0.754 µM)
- MIC [3]: 0.25 µg/mL (≈ 0.754 µM)
- MIC [4]: 0.06 µg/mL (≈ 0.181 µM)
- MIC [5]: 0.06 µg/mL (≈ 0.181 µM)
- MIC [6]: 0.06 µg/mL (≈ 0.181 µM)
- MIC [7]: 0.06 µg/mL (≈ 0.181 µM)
- MIC [8]: 16 µg/mL
- MIC [9]: 0.5 µg/mL
- MIC [10]: 0.25 µg/mL
- MIC [11]: 0.06 µg/mL
- MIC [12]: 0.06 µg/mL
- MIC [13]: 0.06 µg/mL

Compound: C[C@@H](O)[C@H]1C(=O)N2C(C(=O)O)=C(SCCNC=N)C[C@H]12 [IMIPENEM ANHYDROUS]
- MIC50 [14]: 1 µg/mL (≈ 3.34 µM)
- MIC90 [14]: 4 µg/mL (≈ 13.4 µM)
- Activity [15]: 96%
- MIC50 [16]: 2 µg/mL
- MIC90 [16]: 2 µg/mL
- Activity [17]: 98%

Compound: C[C@@H](O)[C@H]1C(=O)N2C(C(=O)O)=C(S[C@@H]3CN[C@H](C(=O)N(C)C)C3)[C@H](C)[C@H]12 [MEROPENEM]
- MIC50 [14]: 0.25 µg/mL (≈ 0.652 µM)
- MIC90 [14]: 0.5 µg/mL (≈ 1.3 µM)
- Activity [15]: 99%
- MIC50 [16]: 0.25 µg/mL
- MIC90 [16]: 0.5 µg/mL
- Activity [17]: 100%

Compound: CCN1CCN(C(=O)N[C@@H](C(=O)N[C@@H]2C(=O)N3[C@@H]2SC(C)(C)[C@@H]3C(=O)O)c2ccccc2)C(=O)C1=O [PIPERACILLIN]
- MIC50 [14]: 0.12 µg/mL (≈ 0.232 µM)
- MIC90 [14]: 0.25 µg/mL (≈ 0.483 µM)
- MIC50 [18]: 0.06 µg/mL
- MIC90 [18]: 0.12 µg/mL
- Activity [19]: 100%
- MIC50 [16]: 32 µg/mL
- MIC90 [16]: ≥ 64 µg/mL
- MIC50 [20]: 0.12 µg/mL
- MIC90 [20]: 0.25 µg/mL
- Activity [21]: 100%
- MIC [22]: ≤ 0.03 µg/mL
- MIC50 [22]: ≤ 0.03 µg/mL
- MIC90 [22]: 0.06 µg/mL
- Activity [23]: 100%
- MIC [24]: ≤ 0.03 µg/mL
- MIC50 [24]: ≤ 0.03 µg/mL
- MIC90 [24]: 0.06 µg/mL
- Activity [25]: 100%
- inhibition zone (IZ) [26]: >=21 mm
- inhibition zone (IZ) [27]: >=21 mm

From ChEMBL document CHEMBL1649234, “Antimicrobial activities of piperacillin-tazobactam against Haemophilus influenzae isolates, including beta-lactamase-negative ampicillin-resistant and beta-lactamase-positive amoxicillin-clavulanate-resistant isolates, and mutations in their quinolone resistance-determining regions” (2009)
